Results from patent US20240390521A1, “CHIMERIC MODIFIED ION CHANNELS AND USES THEREOF FOR TREATMENT OF TRIGEMINAL NERVE DISORDERS” (Kriya Therapeutics, Inc., priority 2023, published 2024).
Structures can show the parent of a compound that is named as a salt.

Experiments:
rat IoN-CCI model = test: Rat IoN-CCI model of trigeminal neuralgia, von Frey filament escape threshold (ET); type: in vivo
Protocol: Infraorbital nerve (IoN) chronic constriction injury (IoN-CCI) is an art-recognized animal model of trigeminal neuralgia (Vos et al. J Neurosci 14 (5 Pt 1): 2708-2723, 1994).
Mechanical allodynia was measured using a von Frey filament assay to define the escape threshold [ET]) in the rat IoN-CCI model. The total study duration was 6 months with two intermittent time points (2-and 4-months). Behavioral efficacy, as assessed by ET, and transgene expression in the trigeminal ganglion were evaluated.
Twelve groups of male and female adult rats were treated. AAV5-m-α7-GlyR LGIC vectors were injected percutaneously into the left trigeminal ganglion whereas the right untreated trigeminal ganglion served as control.
Naïve animals (no IoN-CCI, no AAV5-m-α7-GlyR LGIC or varenicline dosing) served as intact controls for behavioral and molecular analysis.
Varenicline tartrate was administered orally. A tartrate correction factor of 1.71 was applied in dose formulations.
Efficacy presented below is a combination of all 3 time points (2, 4, and 6 months) for each treatment group.

[1] = test system: m-α7-GlyR LGICs expressed in mouse cortical neurons; test: Evoked neuronal activity in mouse cortical neurons expressing m-α7-GlyR LGICs; type: cell-based; details: data not shown
[2] = test system: m-α7-GlyR ion channels in cultured hippocampal neurons; test: Sustained varenicline exposure of cultured hippocampal neurons expressing m-α7-GlyR; type: cell-based; details: varenicline 15 nM for 18 days; data not shown
[3] = Varenicline concentrations in blood, PFC and CSF after single oral administration; type: in vivo, rat; details: male rats
[4] = 28-day study: varenicline PK in blood samples; type: in vivo, rat
Protocol: A 28-day biodistribution/toxicity study was conducted.

CNS function = details: rat, in vivo
[5] = molecular target: α7^L131G, Q139L, Y217F-GlyR LGIC (Homo sapiens, UniProt P36544, L131G/Q139L/Y217F); test: Agonist potency at the modified chimeric LGIC; type: cell-based
m-α7-GlyR LGIC = molecular target: T1, m-α7-GlyR LGIC (Homo sapiens, UniProt P36544, L131G/Q139L/Y217F); test: Constitutive activity of m-α7-GlyR LGIC without varenicline; type: in vivo, rodents; details: absence of varenicline
T1 construct: expressed in transfected cells; host or cells: rodent neurons expressing the transgene (mouse cortical neurons, cultured hippocampal neurons; rat trigeminal ganglion after AAV5 injection)

With `c1cnc2cc3c(cc2n1)[C@@H]1CNC[C@H]3C1` [varenicline, 6,10-Methano-6H-pyrazino[2,3-h][3]benzazepine, 7,8,9,10-tetrahydro-5,8,14-triazatetracyclo[10.3.1.02,11.04,9]hexadeca-2,4,6,8,10-pentaene tartrate salt] the “improvement of pain sensitivity, single agent alone” value (rat IoN-CCI model; Group 6 varenicline alone, Group 7 AAV5-m-α7-GlyR LGIC (6×10^8 vg) alone, tartrate salt) was “neither varenicline alone nor AAV5-m-α7-GlyR LGIC alone (Groups 6 and 7, respectively) demonstrated improved pain sensitivity”, the “varenicline levels at the time of sample collection” value (rat IoN-CCI model; all animals receiving treatment) was “within predictable levels” and the “effect of activation by varenicline on evoked neuronal activity” value [1] was “reversible inhibition of evoked neuronal activity”. The “tachyphylaxis or down regulation of expressed m-α7-GlyR LGICs” value [2] was “did not result in tachyphylaxis or down regulation”, the “time of peak varenicline concentration in CSF” value [3] was 60 min and the “time of peak varenicline concentration in PFC” value [3] was 90 min. The “time of peak varenicline concentration in blood” value [3] was 60 min, the “decrease of varenicline level” value ([4]; 6 hours post-dose vs 2 hours, 1 mg/kg p.o.) was “approximately 50%” and the concentration at 2 h ([4]; rat, blood, po, 2 hours post-dose, 1 mg/kg p.o., average across groups) was about 480 nM. For the same molecule, the concentration at 24 h ([4]; rat, blood, po, 24 hours post final dose, 1 mg/kg p.o. daily, average) was 4.4 nM, the “sex differences in plasma varenicline levels” value ([4]; rat, in vivo) was “no sex differences in plasma varenicline levels” and the “treatment related changes in the neurological assessments” value (CNS function) was “no AAV5-m-α7-GlyR LGIC, varenicline or AAV5-m-α7-GlyR LGIC+varenicline related changes in the neurological assessments”.

Molecule `C[N+](C)(C)CCO` [choline] has an EC50 [5] of over 50 µM.

B1: m-α7-GlyR LGIC: human chimeric ion channel: modified nicotinic α7 receptor binding domain and glycine channel ion pore domain; SEQ ID NO: 1 (protein)
chain: MRCSPGGVWLALAASLLHVSLQGEFQRKLYKELVKNYNPLERPVANDSQPLTVYFSLSLLQIMDVDEKNQVLTTNIWLQMSWTDHYLQWNVSEYPGVKTVRFPDGQIWKPDILLYNSADERFDATFHTNVGVNSSGHCLYLPPGIFKSSCYIDVRWFPFDVQHCKLKFGSWSYGGWSLDLQMQEADISGYIPNGEWDLVGIPGKRSERFYECCKEPFPDVTFTVTMRRRMGYYLIQMYIPSLLIVILSWISFWINMDAAPARVGLGITTVLTMTTQSSGSRASLPKVSYVKAIDIWMAVCLLFVFSALLEYAAVNFVSRQHKELLRFRRKRRHHKEDEAGEGRFNFSAYGMGPACLQAKDGISVKGANNSNTTNPPPAPSKSPEEMRKLFIQRAKKIDKISRIGFPMAFLIFNMFYWIIYKIVRREDVHNQ
With B1 the constitutive activity (m-α7-GlyR LGIC) was “no constitutive activity”.
